Test results as given in patent US20140309309A1, “COSMETIC FORMULATION” (EVONIK INDUSTRIES AG, priority 2011, published 2014).

Columns and labels:
healthy female subjects [1] = test: Human study, face: sagging of the skin assessed by a dermatologist (4-point scale); format: in vivo; conditions: 0.2% by mass in formulation with 1,2-pentanediol, twice daily, twelve weeks, all time points, compared with vehicle group (FIG. 1)
Description: (§1) The panel comprises 60 healthy female subjects of Caucasian origin up to 70 years of age who were in their postmenopausal phase (average age 59.4 years). The formulations were applied on the face. Vehicle formulation (vehicle) and N-hexanoyl-phytosphingosine formulation (N-hexanoyl-phytosphingosine) was each applied by 30 subjects. In the case of the non-inventive vehicle formulation, which serves as comparison formulation, the 0.2% by mass of N-hexanoyl-phytosphingosine were replaced by an additional 0.2% by mass of water.
(§2) Application was carried out twice daily, morning and evening, over a period of twelve weeks. Measurement points were before the start of application (T0), after four weeks (T4), after eight weeks (T8) and after twelve weeks (T12). A period over four weeks is accordingly referred to as T4-T0.
(§3) The measurements were performed in a temperature- and humidity-controlled room (24±2° C., 50±10 relative humidity). The subjects were requested to apply no product up to twelve hours prior to measurement and to wash their face three hours before measurement.
The sagging of the skin was assessed by a dermatologist by means of visual and tactile evaluation by reference to a 4-point scale (0=absent, 1=minimum, 2=moderate, 3=maximum).

[2] = Percutaneous absorption study on a pig skin model; format: in vitro ADME; conditions: 0.2% in formulation in combination with 1.80% 1,2-pentanediol vs corresponding formulations without 1,2-pentanediol (FIG. 4)
Procedure: The increase in the skin penetration of N-hexanoyl-phytosphingosine from a cosmetic formulation as a result of adding 1,2-pentanediol was shown in the course of a percutaneous absorption study on a pig skin model. In practice, the study was performed in accordance with a current protocol, as described for example in S. Richert, A. Schrader, K. Schrader, Int. J. Cosmet. Sci. 2003, 25, 5-13.

healthy female subjects [3] = test: Human study, face: echogenicity of the skin (DermaScan C); format: in vivo; conditions: 0.2% by mass in formulation, twice daily
Description: as §1, §2, §3
The echogenicity of the skin was measured using a DermaScan® C ultrasound scanner. The instrument is based on the physical principle of the ultrasound emission of a transducer. […] Their intensity is detected by a microprocessor. […] The echogenicity was recorded in the B-scan mode and given in %. […]

human dermal fibroblasts = test: Gene expression in human dermal fibroblasts (Affymetrix GeneChip); format: cell-based; conditions: 5 μM, 24 h, vs vehicle-treated fibroblasts
Description: The present example investigates the effect of N-hexanoyl-phytosphingosine on the gene expression in fibroblasts (normal human dermal fibroblasts, NHDFs).
For this, firstly primary human dermal fibroblasts (human dermal fibroblasts derived from neonatal skin, HDF), cryopreserved, Lifeline Cell Technology, acquired via CellSystems® Biotechnologie Vertrieb GmbH, in Minimum Essential Medium (MEM) with Earle's salts (EMEM) (PAA Laboratories GmbH) were cultivated with the addition of 10% foetal bovine serum (FBS, Invitrogen Ltd, UK), 1% nonessential amino acids (NEAA) (100×) (PAA Laboratories GmbH), 1% L-glutamine (100×) (Invitrogen Ltd) and 1% penicillin/streptomycin (5000 U/mL penicillin and 5000 μg/mL streptomycin/mL, (Invitrogen Ltd) at 37° C. and 5% CO2. For gene expression studies, the cells were sown out in 6-well plates and cultivated to the point of subconfluence (maximum 60%).
Then, the medium was removed from the cells and replaced by fresh medium containing N-hexanoyl-phytosphingosine. The vehicle used was methanol, the end concentration of the vehicle in the medium being 0.05% (v/v). The end concentration of N-hexanoyl-phytosphingosine in the medium was 5 μM. As the control, the cultivation was carried out without active ingredient, only with medium (vehicle). All of the cultivations were performed twice (with cells from two different donors).
(§4) After cultivation for 24 hours, the medium was removed and the cells were lysed by adding RNeasy Lysis Buffer (Qiagen). Isolation of whole-RNA was carried out in accordance with manufacturer's instructions. Combined, the whole-RNA was isolated by means of RNeasy Mini Kit (Qiagen). The RNA concentration was determined by spectrophotometry using a SmartSpec Plus (Biorad). Purity and integrity of the RNA were determined using Agilent 2100 Bioanalyzer with a 6000 Nano LabChip reagent set (Agilent Technologies, Inc.). RNA samples were stored at −80° C. until further processing.
(§5) Analysis of the gene expression was carried out using Affymetrix HGU133 plus 2.0 GeneChips (Affymetrix), with 2 μg of whole-RNA being used. For this, the RNA of the two different donor cultures was pooled. Expression analyses including standard data evaluation were carried out in accordance with manufacturer's instructions (AFFYMETRIX, INC.).

healthy female subjects [4] = test: Human study, face: skin roughness (Primos Pico, Sa parameter); format: in vivo; conditions: 0.2% by mass in formulation, twice daily, entire study period of twelve weeks (FIG. 2)
Description: as §1
Application was carried out twice daily, morning and evening, over a period of twelve weeks. Measurement points were before the start of application (T0), after four weeks (T4), after eight weeks (T8) and after twelve weeks (T12). A period over four weeks is accordingly referred to as T4-T0. […]
The roughness of the skin was determined by means of Primos Pico optical 3D-Sensor (GF Messtechnik GmbH). […] Bands are projected onto the surface of the skin and the projection is recorded under a defined triangulation angle by means of a CCD camera. The topography of the measured object is calculated by the position of the bands and the grey scales of all registered image points. […] The average roughness Sa was determined; this reflects the arithmetic mean of the skin roughness in the recorded image.

[5] = tested on: differentiated human adipocytes; test: Gene expression in differentiated human adipocytes (Affymetrix GeneChip); format: cell-based; conditions: 2.5 μM, 6 h, vs vehicle-treated adipocytes
Procedure: This example investigated the effect of N-hexanoyl-phytosphingosine on the gene expression in differentiated human adipocytes.
Cells, media and reagents were acquired from PromoCell. The cultivation was carried out in accordance with the protocol from PromoCell. Unless stated otherwise, the cells were cultivated at 37° C. and 5% CO2. Firstly, proliferating subcutaneous primary human white preadipocytes (HWP) from two different donors were cultivated in a special preadipocyte growth medium until complete confluence was reached. The medium was then exchanged for a special differential medium, and the cells were incubated with this medium for 72 hours. The medium was then exchanged for a further medium (Adipocyte Nutrition Medium) in order to conclude the differentiation process. The cells were further incubated with this medium for twelve days, with media exchange being carried out every three days. Ultimately, the medium was removed from the cells and replaced by fresh medium containing N-hexanoyl-phytosphingosine. The vehicle used was methanol, the end concentration of the vehicle in the medium being 0.05% (v/v). End concentration of N-hexanoyl-phytosphingosine in the medium was 2.5 μM. As the control, the cultivation was carried out without active ingredient, only with medium (vehicle). All of the cultivations were performed twice (with cells from two different donors).
as §4, with “six” for “24”
as §5, with “(Affymetrix.).” for “(AFFYMETRIX, INC.).”

healthy female subjects [6] = test: Human study, upper arm: echogenicity of the skin (DermaScan C); format: in vivo; conditions: twice daily
Description: The panel consisted of healthy female subjects of Caucasian origin up to 70 years old who were in their postmenopausal phase. The echogenicity of the skin on the upper arms of the subjects was at most 60% (DermaScan® C, B-scan mode). The formulations were applied to the upper arms. Vehicle formulation (vehicle) and formulation with different concentrations of N-hexanoyl-phytosphingosine (N-hexanoyl-phytosphingosine) was applied by in each case 16 subjects. In the non-inventive vehicle formulation, which serves as comparison formulation, the corresponding % by mass of N-hexanoyl-phytosphingosine were replaced by additional % by mass of water.
as §2
The measurements were performed in a temperature- and humidity-controlled room (24±2° C., 50±10 relative humidity). The subjects were asked to apply no product up to twelve hours before measurement and to no longer wash their arms from three hours before measurement.
The skin slackening was measured by measuring the echogenicity of the skin by means of a DermaScan® C ultrasound scanner. The echogenicity was recorded in the B-scan mode and given in %. […]

CCCCCCCCCCCCCC[C@@H](O)[C@@H](O)[C@H](CO)NC(=O)CCCCC [N-hexanoyl-phytosphingosine]
decrease in sagging of the skin (healthy female subjects [1]): more marked
bioavailability (skin penetration) of N-hexanoyl-phytosphingosine from formulation [2]: increase in bioavailability
change in the echogenicity of the skin (healthy female subjects [3]; after four weeks (T4-T0) (FIG. 3)): slight decrease in echogenicity
change in the echogenicity of the skin (healthy female subjects [3]; as the study progressed (to T12) (FIG. 3)): steadily improved
Regulation of the gene expression by N-hexanoyl-phytosphingosine: ACAN (aggrecan) (human dermal fibroblasts): +1.7 fold
Regulation of the gene expression by N-hexanoyl-phytosphingosine: COL10A1 (collagen, type X, alpha 1) (human dermal fibroblasts): +3.2 fold
Regulation of the gene expression by N-hexanoyl-phytosphingosine: COL11A1 (collagen, type XI, alpha 1) (human dermal fibroblasts): +2.2 fold
Regulation of the gene expression by N-hexanoyl-phytosphingosine: FGF18 (fibroblast growth factor 18) (human dermal fibroblasts): +2.2 fold
Regulation of the gene expression by N-hexanoyl-phytosphingosine: HAPLN1 (hyaluronan and proteoglycan link protein) (human dermal fibroblasts): +4.1 fold
Regulation of the gene expression by N-hexanoyl-phytosphingosine: IGF1 (insulin-like growth factor 1) (human dermal fibroblasts): +2.0 fold
Regulation of the gene expression by N-hexanoyl-phytosphingosine: ITGA2 (integrin alpha-2) (human dermal fibroblasts): +1.6 fold
Regulation of the gene expression by N-hexanoyl-phytosphingosine: LEP (leptin) (human dermal fibroblasts): +2.2 fold
Regulation of the gene expression by N-hexanoyl-phytosphingosine: MMP3 (matrix metallopeptidase 3) (human dermal fibroblasts): −1.4 fold
change in skin roughness (Sa parameter) (healthy female subjects [4]): steadily further reduced
Regulation of the gene expression by N-hexanoyl-phytosphingosine: ACACA (acetyl-coenzyme A carboxylase alpha) [5]: +1.5 fold
Regulation of the gene expression by N-hexanoyl-phytosphingosine: ADIPOQ (adiponectin) [5]: +2.2 fold
Regulation of the gene expression by N-hexanoyl-phytosphingosine: CEBPB (CAAT/enhancer binding protein (C/EBP), beta) [5]: +2.1 fold
Regulation of the gene expression by N-hexanoyl-phytosphingosine: FAS (fatty acid synthase) [5]: +1.4 fold
Regulation of the gene expression by N-hexanoyl-phytosphingosine: LEP (leptin) [5]: +2.7 fold
Regulation of the gene expression by N-hexanoyl-phytosphingosine: LEPR (leptin receptor) [5]: +4.1 fold
Regulation of the gene expression by N-hexanoyl-phytosphingosine: LIPC (lipase) [5]: −2.5 fold
Regulation of the gene expression by N-hexanoyl-phytosphingosine: PPARD (peroxisome proliferator activated receptor, delta) [5]: +1.7 fold
Regulation of the gene expression by N-hexanoyl-phytosphingosine: PPARG (peroxisome proliferator activated receptor, gamma) [5]: +2.5 fold
Regulation of the gene expression by N-hexanoyl-phytosphingosine: THBS1 (thrombospondin 1) [5]: +5.9 fold
echogenicity of the skin on the upper arm compared with the starting value (healthy female subjects [6]; 0.02% in formulation, increase only measurable after a treatment time of eight weeks (FIG. 5)): less marked
echogenicity of the skin on the upper arm compared with the starting value (healthy female subjects [6]; 0.05% in formulation, four, eight and twelve weeks (FIG. 5)): increase in the echogenicity of the skin
